From patent US9914730B2, “Azaquinazoline inhibitors of Atypical protein Kinase C” (Ignyta, Inc., priority 2012, dated 2018) come the findings set out here.

The target of the test is T1, full-length human PKCι (Homo sapiens, UniProt P41743).
T1 construct: Recombinant, full-length human PKCι expressed in Sf21 insect cells is also commercially available; purchased; host or cells: Sf21 insect cells
T1 sequence (P41743 1-596): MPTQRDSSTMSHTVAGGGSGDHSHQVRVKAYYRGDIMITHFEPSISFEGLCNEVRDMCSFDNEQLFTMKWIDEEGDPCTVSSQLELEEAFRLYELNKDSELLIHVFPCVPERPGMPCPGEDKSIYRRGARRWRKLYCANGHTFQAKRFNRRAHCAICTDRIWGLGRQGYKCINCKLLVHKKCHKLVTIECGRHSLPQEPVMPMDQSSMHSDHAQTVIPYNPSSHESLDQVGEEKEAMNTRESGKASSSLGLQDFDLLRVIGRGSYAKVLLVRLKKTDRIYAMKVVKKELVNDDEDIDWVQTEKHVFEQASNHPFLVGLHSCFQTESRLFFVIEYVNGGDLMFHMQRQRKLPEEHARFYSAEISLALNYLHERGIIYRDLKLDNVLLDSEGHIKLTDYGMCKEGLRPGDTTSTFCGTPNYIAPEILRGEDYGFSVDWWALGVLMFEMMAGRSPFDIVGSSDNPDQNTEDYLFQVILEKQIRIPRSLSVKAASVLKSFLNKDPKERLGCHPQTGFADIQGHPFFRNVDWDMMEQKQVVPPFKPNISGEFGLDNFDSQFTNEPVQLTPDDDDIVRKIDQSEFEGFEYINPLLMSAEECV
Put plainly: PKCι IC50 IMAP assay, full-length PKCι at 150 μM ATP. In kind it is biochemical. The settings on record: read-out: IC50 in IMAP assay against full length PKCi at 150 μM ATP. A digest of the protocol:
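Compounds in 4% final DMSO are mixed with Sf21-derived full-length human PKCι (typically 15 pM) and 100 nM FAM-labelled pseudosubstrate peptide, then started with 150 μM ATP. Reaction runs 60 min at room temperature, is quenched with IMAP development reagent for 2 h, and fluorescence polarisation is measured to derive IC50.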

Consider `C[C@@H](Nc1cc(-c2nc(N3CCNCC3)c3c(C4CC4)cncc3n2)ccn1)C1CC1` [Example 810, ((R)-1-Cyclopropyl-ethyl)-[4-(5-cyclopropyl-4-piperazin-1-yl-pyrido[3,4-d]pyrimidin-2-yl)-pyridin-2-yl]-amine], for which the IC50 was less than 0.1 µM. The result for `c1cc(-c2nc(N3CCNCC3)c3ccncc3n2)ccn1` [Example 1, 1-[2-(pyridin-4-yl)pyrido[3,4-d]pyrimidin-4-yl]piperazine] reads 0.1 to 1 µM; that for `COc1cncc2nc(-c3ccncc3)nc(N3CCN(CC#N)CC3)c12` [Example 87, 2-{4-[5-methoxy-2-(pyridin-4-yl)pyrido[3,4-d]pyrimidin-4-yl]piperazin-1-yl}acetonitrile], 10 to 40 µM; that for `OC[C@@H](Nc1cc(-c2nc(N3CCNCC3)c3c(C4CC4)cncc3n2)ccn1)c1ccccc1` [Example 2164, (S)-2-[4-(5-Cyclopropyl-4-piperazin-1-yl-pyrido[3,4-d]pyrimidin-2-yl)-pyridin-2-ylamino]-2-phenyl-ethanol], less than 0.1 µM.

In the case of `COc1cncc2nc(-c3ccnc(Nc4ccc(C)cn4)c3)nc(N3CCNCC3)c12` [Example 364, [4-(5-Methoxy-4-piperazin-1-yl-pyrido[3,4-d]pyrimidin-2-yl)-pyridin-2-yl]-(5-methyl-pyridin-2-yl)-amine], the IC50 is less than 0.1 µM. The result for `Fc1cccc(Cl)c1Nc1cc(-c2nc(N3CCNCC3)c3c(C4CC4)cncc3n2)ccn1` [Example 616, (2-Chloro-6-fluoro-phenyl)-[4-(5-cyclopropyl-4-piperazin-1-yl-pyrido[3,4-d]pyrimidin-2-yl)-pyridin-2-yl]-amine] reads less than 0.1 µM; that for `CN1CCP(=O)(c2ccc(Nc3cc(-c4nc(N5CCNCC5)c5c(C6CC6)cncc5n4)ccn3)cc2)CC1` [Example 614, [4-(5-Cyclopropyl-4-piperazin-1-yl-pyrido[3,4-d]pyrimidin-2-yl)-pyridin-2-yl]-[4-(1-methyl-4-oxo-4λ^5-[1,4]azaphos-phinan-4-yl)-phenyl]-amine], less than 0.1 µM.

On to `C[C@H]1CN(c2nc(-c3ccnc(Nc4ccc(F)cc4)c3)nc3cncc(C4CC4)c23)CCN1` [Example 693, {4-[5-Cyclopropyl-4-((S)-3-methyl-piperazin-1-yl)-pyrido[3,4-d]pyrimidin-2-yl]-pyridin-2-yl}-(4-fluoro-phenyl)-amine], for which the IC50 was less than 0.1 µM. The result for `COc1cncc2nc(-c3ccnc4[nH]c(C)cc34)nc(N3CCNCC3)c12` [Example 1201, 5-Methoxy-2-(2-methyl-1H-pyrrolo[2,3-b]pyridin-4-yl)-4-piperazin-1-yl-pyrido[3,4-d]pyrimidine] reads less than 0.1 µM; that for `N#Cc1ccnc(Nc2cc(-c3nc(N4CC[C@H](O)[C@H](O)C4)c4c(C5CC5)cncc4n3)ccn2)c1` (stereo in doubt) [Example 487, 2-{4-[5-Cyclopropyl-4-((3R,4S)-3,4-dihydroxy-piperidin-1-yl)-pyrido[3,4-d]pyrimidin-2-yl]-pyridin-2-ylamino}-isonicotinonitrile], less than 0.1 µM; that for `FC(F)(F)[C@H]1CN(c2nc(-c3ccnc4[nH]ccc34)nc3cncc(C4CC4)c23)CCN1` [Example 1213, 5-Cyclopropyl-2-(1H-pyrrolo[2,3-b]pyridin-4-yl)-4-((R)-3-trifluoromethyl-piperazin-1-yl)-pyrido[3,4-d]pyrimidine], less than 0.1 µM. Next, `CC(=O)NC1CCN(c2nc(-c3ccnc(Nc4c(F)cccc4F)c3)nc3cncc(C4CC4)c23)C1` (centres unmarked) [Example 713, N-(1-{5-Cyclopropyl-2-[2-(2,6-difluoro-phenylamino)-pyridin-4-yl]-pyrido[3,4-d]pyrimidin-4-yl}-pyrrolidin-3-yl)-acetamide]: 0.1 to 1 µM; `COc1cncc2nc(-c3ccnc(Nc4c(F)ccc(F)c4F)c3)nc(N3CCNCC3)c12` [Example 444, [4-(5-Methoxy-4-piperazin-1-yl-pyrido[3,4-d]pyrimidin-2-yl)-pyridin-2-yl]-(2,3,6-trifluoro-phenyl)-amine]: less than 0.1 µM; `Oc1nc(-c2ccnc(Nc3cccc(N4CCNCC4)c3)c2)nc2cnccc12` [Example 497, 2-[2-(3-piperazin-1-yl-phenylamino)-pyridin-4-yl]-pyrido[3,4-d]pyrimidin-4-ol]: 10 to 40 µM.

`Fc1ccn2nc(Nc3cc(-c4nc(N5CCNCC5)c5c(C6CC6)cncc5n4)ccn3)nc2c1` [Example 2033, [4-(5-Cyclopropyl-4-piperazin-1-yl-pyrido[3,4-d]pyrimidin-2-yl)-pyridin-2-yl]-(7-fluoro-[1,2,4]triazolo[1,5-a]pyridin-2-yl)-amine]: the IC50 was less than 0.1 µM. Next, `COc1cncc2nc(-c3ccncc3)nc(NC[C@H](Cc3ccccc3)N(C)C)c12` [Example 49, [(2S)-1-{[5-methoxy-2-(pyridin-4-yl)-pyrido[3,4-d]-pyrimidin-4-yl]-amino}-3-phenylpropan-2-yl]dimethylamine]: 1 to 10 µM; `COc1cncc2nc(-c3ccnc(Nc4cccc(F)n4)c3)nc(N3CCC(O)CC3)c12` [Example 468, 1-{2-[2-(6-Fluoro-pyridin-2-ylamino)-pyridin-4-yl]-5-methoxy-pyrido[3,4-d]pyrimidin-4-yl}-piperidin-4-ol]: 0.1 to 1 µM. The result for `NC(=O)c1ccc(Nc2cc(-c3nc(N[C@@H]4CCNC4)c4ccncc4n3)ccn2)cc1` [Example 304, 4-{4-[4-((R)-Pyrrolidin-3-ylamino)-pyrido[3,4-d]pyrimidin-2-yl]-pyridin-2-ylamino}-benzamide] reads 0.1 to 1 µM; that for `C=C(C)c1cncc2nc(-c3ccncc3)nc(N3CCNCC3)c12` [Example 143, 5-Isopropenyl-4-piperazin-1-yl-2-pyridin-4-yl-pyrido[3,4-d]pyrimidine], less than 0.1 µM; that for `Cn1cc(CNc2cc(-c3nc(N4CCNCC4)c4c(C5CC5)cncc4n3)ccn2)cn1` [Example 758, [4-(5-Cyclopropyl-4-piperazin-1-yl-pyrido[3,4-d]pyrimidin-2-yl)-pyridin-2-yl]-(1-methyl-1H-pyrazol-4-ylmethyl)-amine], less than 0.1 µM. Next, `c1cc2c(N[C@@H]3CCNC3)nc(-c3ccnc(Nc4cc(N5CCOCC5)ccn4)c3)nc2cn1` [Example 343, {2-[2-(4-Morpholin-4-yl-pyridin-2-ylamino)-pyridin-4-yl]-pyrido[3,4-d]pyrimidin-4-yl}-(R)-pyrrolidin-3-yl-amine]: 0.1 to 1 µM; `FC(F)(F)c1ccc(Cl)c(Nc2cc(-c3nc(N4CCNCC4)c4c(C5CC5)cncc4n3)ccn2)c1` [Example 597, (2-Chloro-5-trifluoromethyl-phenyl)-[4-(5-cyclopropyl-4-piperazin-1-yl-pyrido[3,4-d]pyrimidin-2-yl)-pyridin-2-yl]-amine]: 10 to 40 µM; `CN1CCN(C(=O)C2CCN(c3nc(-c4ccnc(Nc5c(F)cccc5F)c4)nc4cncc(C5CC5)c34)CC2)CC1` [Example 735, (1-{5-Cyclopropyl-2-[2-(2,6-difluoro-phenylamino)-pyridin-4-yl]-pyrido[3,4-d]pyrimidin-4-yl}-piperidin-4-yl)-(4-methyl-piperazin-1-yl)-methanone]: 0.1 to 1 µM. Consider `Fc1cc(F)c(F)c(Nc2cc(-c3nc(N4CCNCC4)c4c(C5CC5)cncc4n3)ccn2)n1` [Example 774, [4-(5-Cyclopropyl-4-piperazin-1-yl-pyrido[3,4-d]pyrimidin-2-yl)-pyridin-2-yl]-(3,4,6-trifluoro-pyridin-2-yl)-amine], for which the IC50 was less than 0.1 µM. The result for `COc1cncc2nc(-c3ccnc(NC(=O)C4CCOCC4)c3)nc(N3CCNCC3)c12` [Example 218, Tetrahydro-pyran-4-carboxylic acid[4-(5-methoxy-4-piperazin-1-yl-pyrido[3,4 d]pyrimidin-2-yl)-pyridin-2-yl]-amide] reads less than 0.1 µM; that for `CC(=O)N1CCC(N(C)c2nc(-c3ccnc(Nc4c(F)cccc4F)c3)nc3cncc(C4CC4)c23)CC1` [Example 2096, 1-[4-({5-Cyclopropyl-2-[2-(2,6-difluoro-phenylamino)-pyridin-4-yl]-pyrido[3,4-d]pyrimidin-4-yl}-methyl-amino)-piperidin-1-yl]-ethanone], 0.1 to 1 µM. Turning to `c1ccc2sc(Nc3cc(-c4nc(N5CCNCC5)c5c(C6CC6)cncc5n4)ccn3)nc2c1` [Example 2045, Benzothiazol-2-yl-[4-(5-cyclopropyl-4-piperazin-1-yl-pyrido[3,4-d]pyrimidin-2-yl)-pyridin-2-yl]-amine], the half-maximal inhibitory concentration (IC50) was less than 0.1 µM. Next, `Cc1ccncc1Nc1cc(-c2nc(N3CCNCC3)c3c(C4CC4)cncc3n2)ccn1` [Example 478, [4-(5-Cyclopropyl-4-piperazin-1-yl-pyrido[3,4-d]pyrimidin-2-yl)-pyridin-2-yl]-(4-methyl-pyridin-3-yl)-amine]: less than 0.1 µM.

For “{4-[5-Cyclopropyl- 4-((R)-3- fluoromethyl- piperazin-1- yl)-pyrido[3,4-d]- pyrimidin-2-yl]- pyridin-2-yl}-(6- fluoro-pyridin-2- yl)-amine [Example 512]”, the IC50 was less than 0.1 µM.

Usually IC50 stands for the concentration at which inhibition is half-maximal.
